Series [1] addresses T1, recombinant human Muscarinic M1 receptor (Homo sapiens, UniProt P11229).
T1 sequence (P11229 1-460): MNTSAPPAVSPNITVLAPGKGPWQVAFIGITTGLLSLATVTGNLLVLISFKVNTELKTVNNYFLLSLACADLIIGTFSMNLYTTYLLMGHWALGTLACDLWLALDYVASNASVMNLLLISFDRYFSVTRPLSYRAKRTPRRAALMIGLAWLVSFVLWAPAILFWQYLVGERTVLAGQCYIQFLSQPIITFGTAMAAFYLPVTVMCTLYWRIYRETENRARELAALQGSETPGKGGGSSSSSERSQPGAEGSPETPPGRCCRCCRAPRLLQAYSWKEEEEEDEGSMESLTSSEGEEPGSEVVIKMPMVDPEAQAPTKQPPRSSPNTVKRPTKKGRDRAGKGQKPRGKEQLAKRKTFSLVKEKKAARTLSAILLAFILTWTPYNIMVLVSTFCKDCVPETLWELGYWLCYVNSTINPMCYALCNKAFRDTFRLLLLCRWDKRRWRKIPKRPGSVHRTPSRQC
The series can be described thus: Allosteric potency EC50 for muscarinic M1 receptor, CHO pCRE-Luc reporter cell-based assay with EC20 of acetylcholine. The settings on record: CHO cells, luciferase activity, in presence of EC20 of acetylcholine, 4 hours. As to the method:
Determination of Allosteric Potency EC50 Values for Muscarinic M1 Receptor
A stable CHO cell line expressing recombinant human Muscarinic M1 receptor and pCRE-Luc reporter system was used for cell-based assay. The assay offers a non-radioactive based approach to determine binding of a compound to GPCRs. In this specific assay, the level of intracellular cyclic AMP which is modulated by activation or inhibition of the receptor is measured. The recombinant cells harbor luciferase reporter gene under the control of cyclic AMP response element.
The above cells were grown in 96 well clear bottom white plates in Hams F12 medium containing 10% fetal bovine serum (FBS). Prior to the addition of compounds or standard agonist, cells were serum starved overnight. Increasing concentrations of test compounds were added along with EC20 of acetylcholine in OptiMEM medium to the cells. The incubation was continued at 37° C. in CO2 incubator for 4 hours. Medium was removed and cells were washed with phosphate buffered saline. The cells were lysed and luciferase activity was measured in a Luminometer. Luminescence units were plotted against the compound concentrations using Graphpad software.

Series [2] in a line: Rodent pharmacokinetic study. The settings on record: male, Wistar, plasma, rat; for bioavailability: oral 3 mg/kg vs intravenous 1 mg/kg, read-out: F (%) Bioavailability. In kind it is in vivo, Male Wistar rats. How it is done: Rodent Pharmacokinetic Study
Male Wistar rats (260±50 grams) were used as experimental animals. Animals were housed individually in polypropylene cage. Two days prior to study, male Wistar rats were anesthetized with isoflurane for surgical placement of jugular vein catheter. Rats were randomly divided for oral (3 mg/kg) and intravenous (1 mg/kg) dosing (n=3/group) and fasted overnight before oral dosing (p.o.). However, rats allocated to intravenous dosing food and water was provided ad libitum.
At pre-determined point, blood was collected through jugular vein and replenished with an equivalent volume of normal saline. Collected blood was transferred into a labeled eppendorf tube containing 10 μL of heparin as an anticoagulant. Typically blood samples were collected at following time points: 0.08, 0.25, 0.5, 1, 2, 4, 6, 8, and 24 h post dose. Blood was centrifuged at 4000 rpm for 10 minutes. Plasma was separated and stored frozen at −80° C. until analysis. The concentrations of the test compounds were quantified in plasma by qualified LC-MS/MS method using suitable extraction technique. The test compounds were quantified in the calibration range around 1-1000 ng/mL in plasma. Study samples were analyzed using calibration samples in the batch and quality control samples spread across the batch.
Pharmacokinetic parameters Cmax, AUCt, T1/2, Clearance and Bioavailability (F) were calculated by non-compartmental model using standard non-compartmental model by using Phoenix WinNonlin 6.0.4 version Software package.

For orientation: EC50 means the midpoint of the concentration-response curve. What is called AUC(0-t) is the area under the concentration-time curve up to a stated or last time point. In general, clearance refers to a measure of how efficiently the substance is removed, as volume per time. As a reminder, the half-life is the time in which the quantity being followed falls by half. Usually bioavailability stands for dose-corrected exposure relative to a reference, in per cent. Usually Cmax stands for the peak of the concentration-time curve.

Consider `O=C(N[C@H]1CCCC[C@@H]1O)c1cc(Cc2ccc(-c3ccc(F)cc3)cc2)c2cccn2n1` (stereo in doubt) [Example 23, N-[(1S,2S)-2-Hydroxycyclohexyl] 4-[4-(4-fluorophenyl)-benzyl]-pyrrolo[1,2-b]pyridazine-2-carboxamide], for which the EC50 in series [1] turned out to be 1020 nM.
As to `O=C(N[C@H]1CCCC[C@@H]1O)c1cc(Cc2ccc(-c3cccnc3)cc2)c2cccn2n1` (stereo in doubt) [Example 26, N-[(1S,2S)-2-Hydroxycyclohexyl] 4-[4-(3-pyridyl)-benzyl]-pyrrolo[1,2-b]pyridazine-2-carboxamide], in series [2] (intravenous (bolus), 1 mg/kg), the AUC(0-t) was 1130 ± 61 ng·h/mL, the clearance turned out to be 14.4 ± 1 mL/min/kg and the half-life was 1.8 ± 0.2 h. For the same compound, in series [2], the bioavailability is 71 ± 4%. In series [2] (oral (gavage), 3 mg/kg), this compound had an AUC(0-t) of 2390 ± 129 ng·h/mL, a Cmax of 762 ± 80 ng/mL and a half-life of 1.77 ± 0.07 h.
For `O=C(N[C@H]1CCCC[C@@H]1O)c1cc(Cc2ccc(-c3ccncc3)cc2)c2cccn2n1` (stereo in doubt) [Example 27, N-[(1S,2S)-2-Hydroxycyclohexyl] 4-[4-(4-pyridyl)-benzyl]-pyrrolo[1,2-b]pyridazine-2-carboxamide], in series [2] (intravenous (bolus), 1 mg/kg), the AUC(0-t) was 687 ± 50 ng·h/mL, the clearance is 24 ± 1.8 mL/min/kg and the half-life was 1.1 ± 0.3 h. In series [2], the bioavailability stood at 49 ± 16%. In series [2] (oral (gavage), 3 mg/kg), this compound showed an AUC(0-t) of 1000 ± 320 ng·h/mL, a Cmax of 397 ± 162 ng/mL and a half-life of 1.06 ± 0.08 h.
`O=C(N[C@H]1CCCC[C@@H]1O)c1cc(Cc2ccc(Cl)cc2)c2cccn2n1` [Example 2, N-[(1S,2S)-2-Hydroxycyclohexyl]-4-(4-chlorobenzyl)-pyrrolo[1,2-b]pyridazine-2-carboxamide]: the EC50 in series [1] came to 555 nM.
In the case of `CC(C)(O)CNC(=O)c1cc(Cc2ccc(Cl)cc2)c2cccn2n1` [Example 3, N-[2-Hydroxy-2-methyl-propyl]-4-(4-chlorobenzyl)-pyrrolo[1,2-b]pyridazine-2-carboxamide], the EC50 in series [1] is 941 nM.
On the same count and under the same terms, under `O=C(N[C@H]1CCCC[C@@H]1O)c1cc(Cc2ccc(Br)cc2)c2cccn2n1` [Example 5, N-[(1S,2S)-2-Hydroxycyclohexyl]-4-(4-bromobenzyl)-pyrrolo[1,2-b]pyridazine-2-carboxamide] stands 344 nM; under `O=C(NCC1(O)CCOCC1)c1cc(Cc2ccc(Cl)cc2)c2cccn2n1` [Example 6, N-[(4-Hydroxy-tetrahydro-pyran-4-ylmethyl)]-4-(4-chlorobenzyl)-pyrrolo[1,2-b]pyridazine-2-carboxamide], 3990 nM.
As for `O=C(N[C@H]1CCCC[C@@H]1O)c1cc(Cc2cccc(F)c2)c2cccn2n1` [Example 7, N-[(1S,2S)-2-Hydroxycyclohexyl]-4-(3-fluorobenzyl)-pyrrolo[1,2-b]pyridazine-2-carboxamide], the EC50 in series [1] was determined as 847 nM.
Still for that read-out and setting: under `O=C(NCCO)c1cc(Cc2ccc(Br)cc2)c2cccn2n1` [Example 12, N-[2-hydroxyethyl]-4-(4-bromobenzyl)-pyrrolo[1,2-b]pyridazine-2-carboxamide] stands 1550 nM; under `CCC(CO)NC(=O)c1cc(Cc2ccc(Br)cc2)c2cccn2n1` (stereo not drawn) [Example 16, N-[1-Hydroxymethyl-propyl]-4-(4-bromobenzyl)-pyrrolo[1,2-b]pyridazine-2-carboxamide], 1000 nM.
On the same count and under the same terms, under `CC(C)C(CO)NC(=O)c1cc(Cc2ccc(Br)cc2)c2cccn2n1` (stereo not drawn) [Example 17, N-[1-Hydroxymethyl-2-methylpropyl]-4-(4-bromobenzyl)-pyrrolo[1,2-b]pyridazine-2-carboxamide] stands 1900 nM.
In series [2] (intravenous (bolus), 1 mg/kg), `Cn1cc(-c2ccc(Cc3cc(C(=O)NC4CCOCC4)nn4cccc34)cc2)cn1` [Example 21, N-[Tetrahydropyran-4-yl] 4-[4-(1-methyl-1H-pyrazol-4-yl)-benzyl]-pyrrolo[1,2-b]pyridazine-2-carboxamide] had an AUC(0-t) of 8200 ± 1560 ng·h/mL, a clearance of 1.9 ± 0.5 mL/min/kg and a half-life of 8.1 ± 1.4 h. In addition, the bioavailability in series [2] came to 58 ± 2%. In series [2] (oral (gavage), 3 mg/kg), this compound showed an AUC(0-t) of 14200 ± 493 ng·h/mL, a Cmax of 1060 ± 257 ng/mL and a half-life of 8.7 ± 3 h.
Consider `Cn1cc(-c2ccc(Cc3cc(C(=O)NCC4(O)CCOCC4)nn4cccc34)cc2)cn1` [Example 22, N-[4-Hydroxy-tetrahydro-pyran-4-ylmethyl] 4-[4-(1-methyl-1H-pyrazol-4-yl)-benzyl]-pyrrolo[1,2-b]pyridazine-2-carboxamide], for which the 50% effective concentration (EC50) in series [1] was 1660 nM.
For the compound `O=C(NC1CCOCC1)c1cc(Cc2ccc(-c3cccnc3)cc2)c2cccn2n1` [Example 28, N-[Tetrahydropyran-4-yl] 4-[4-(3-pyridyl)-benzyl]-pyrrolo[1,2-b]pyridazine-2-carboxamide], in series [1], the EC50 was 586 nM.
On the same count and under the same terms, next, `Cn1cc(-c2ccc(Cc3cc(C(=O)NC4CCOC4)nn4cccc34)cc2)cn1` (stereo not drawn) [Example 32, N-[Tetrahydrofuran-3-yl] 4-[4-(1-methyl-1H-pyrazol-4-yl)-benzyl]-pyrrolo[1,2-b]pyridazine-2-carboxamide]: 2020 nM; `O=C(NC1CCOC1)c1cc(Cc2ccc(-c3ccncc3)cc2)c2cccn2n1` (stereo not drawn) [Example 33, N-[Tetrahydrofuran-3-yl] 4-[4-(4-pyridyl)-benzyl]-pyrrolo[1,2-b]pyridazine-2-carboxamide]: 2110 nM; `O=C(NC1CCOC1)c1cc(Cc2ccc(-c3cccnc3)cc2)c2cccn2n1` (stereo not drawn) [Example 34, N-[Tetrahydrofuran-3-yl] 4-[4-(3-pyridyl)-benzyl]-pyrrolo[1,2-b]pyridazine-2-carboxamide]: 2850 nM.
On the same count and under the same terms, next, `Cn1cc(-c2ccc(Cc3cc(C(=O)NCC4CCOC4)nn4cccc34)cc2)cn1` (stereo not drawn) [Example 35, N-[Tetrahydrofuran-3-ylmethyl] 4-[4-(1-methyl-1H-pyrazol-4-yl)-benzyl]-pyrrolo[1,2-b]pyridazine-2-carboxamide]: 343 nM; `CCC(CO)NC(=O)c1cc(Cc2ccc(-c3cnn(C)c3)cc2)c2cccn2n1` (stereo not drawn) [Example 36, N-[l-Hydroxymethyl-propyl] 4-[4-(1-methyl-1H-pyrazol-4-yl)-benzyl]-pyrrolo[1,2-b]pyridazine-2-carboxamide]: 1150 nM.
The same measure, in the same setting: under `CC(C)C(CO)NC(=O)c1cc(Cc2ccc(-c3cnn(C)c3)cc2)c2cccn2n1` (stereo not drawn) [Example 37, N-[1-Hydroxymethyl-2-methylpropyl] 4-[4-(1-methyl-1H-pyrazol-4-yl)-benzyl]-pyrrolo[1,2-b]pyridazine-2-carboxamide] stands 411 nM.
For the compound `O=C(N[C@H]1CCCC[C@@H]1O)c1cc(Cc2ccc(Cc3ccnc(F)c3)cc2)c2cccn2n1` [Example 50, N-[(1S,2S)-2-Hydroxycyclohexyl]-4-[4-(2-fluoropyridin-4-yl-methyl)-benzyl]-pyrrolo[1,2-b]pyridazine-2-carboxamide], the EC50 in series [1] turned out to be 518 nM.

(Values after US12122779B2, “Pyrrolo-pyridazine derivatives as muscarinic M1 receptor positive allosteric modulators” (SUVEN LIFE SCIENCES LIMITED, priority 2018, dated 2024).)
